# Test results as given in US8802439B2, “Methods for enhancing infectivity of retroviruses” (priority 2009, dated 2014).
# Entries after “also recorded” stand apart in the source; their conditions may differ.
# Columns and labels:
# HIV-1 = HIV-1 viral production in 293T producer cells, p24 ELISA of supernatants; type: cell-based
# Excerpt: Plasmids: Laboratory-adapted provirus NL4.3, and the CypA-independent NL4.3 CAi2 were kindly provided by Akio Adachi (Department of Virology, Institute of Health Biosciences, The University of Tokushima Graduate School, JAPAN). Mutant R9G89V was a gift from P. Gallay (TSR1) as were NL4.3-GFP and SIV-GFP (originally Dana Gabuzda, Dana Farber Cancer Institute). NL4.3 A92E was kindly provided by W. Phares (Genetics Unit, Novartis Forschungsinstitut, Vienna, Austria). R9Δgp160 plasmid clone was kindly provided by C. Aiken (Vanderbilt Medical Center). VSV-G (CMV-VSV-G) was kindly provided by D. Trono (École Polytechnique Fédérale de Lausanne). Both bMLV-GFP and nMLV-GFP in the form of pCIG3-N, pCIG3-B as well as pCNCG were kindly provided by J. Stoye (National Institute for Medical Research, UK). Isomerase mutant Pin1 (pFLAG-Pin1R68,69A) and WW-domain mutant Pin1 (pFLAG-Pin1 W34A) were constructed by site-directed mutagenesis. Pseudotyping experiments were performed using DNA constructs encoding the VSV-G generously provided by D. Trono. Human Pin1 was cloned into pFLAG (Sigma-Aldrich) making pFLAG-Pin1. Viruses were produced by transfection of 293T cells using either GeneJuice (Novagen) or calcium phosphate. […] All viruses were harvested 24-48 hours post-transfection and filtered (0.2-μM filter, Steriflip Millipore). […]
# nMLV-GFP = experiment: Infectivity of nMLV-GFP virions (RT-normalized), GFP fluorescence via FACS; type: cell-based; settings: produced with PiB; TZM, OMK, sMAGI, Vero, CV-1 target cells
# Protocol: Infection assays for retrovirus: Single-round infections: CD4^+ TZM-bl 100,000 cells/well/mL were seeded onto 24-well plates 24 hours prior to infection. These cells were infected in quadruplicate to 24-well plates. Infectivity was scored using an enzymatic galactosidase activity assay. Specifically, infected TZM-bl cells were washed and lysed, and 20 μl of lysate was transferred to a 96-well plate for detecting β-galactosidase activity. 100 μl of reaction buffer Galacton-Star substrate (Applied Biosystems, Bedford, Mass.), diluted 1:50, was added to 20 μl of lysate, and the light emission was measured over 1 second in a microplate luminometer after 30 minutes incubation. […] Replication was monitored by p24 ELISA. […] Viruses were used to infect in duplicate wells, incubated for 48 hours, washed with PBS, trypsinized, fixed in 1% formaldehyde and subsequently analyzed by fluorescence-activated cell sorting (FACS) for percentage cells infected.
# We further examined whether blocking Pin1 in producer cells can enhance the infectivity of retroviruses in different primate target cells. […] Infectivity was analyzed by GFP fluorescence via FACS. […] If more cells are infected than the number infected by viruses from untreated cells, this is expressed as a value above 100%—e.g. 2000 cells/10,000 vs 4000 cells/10,000 would be 100% and 200% respectively. […]
# [1] = tested on: other prolyl isomerases such as CypA or FKBP; settings: cited from earlier work
structure (smiles),measurement,setting,value
"CCOC(=O)CN1C(=O)c2ccc3c4c(ccc(c24)C1=O)C(=O)N(CC(=O)OCC)C3=O [PiB, diethyl-1,3,6,8-tetrahydro-1,3,6,8-tetraoxobenzo[lmn][3,8]phenanthroline-2,7-diacetate]",viral production (HIV-1 capsid in viral supernatants by p24 ELISA),HIV-1,Neither inhibitor influences viral production; also recorded: do not alter viral production
same,infectivity of nMLV-GFP in primate target cell panel,nMLV-GFP,enhanced infectivity
same,"inhibition of other PPIase families (CypA, FKBP)",[1],do not inhibit
